Laboratory results reported in patent US10174013B2, “Benzimidazole derivatives as kinase inhibitors” (SELVITA S.A., priority 2012, dated 2019).
Counter-ions that a name gives are not always drawn. Like-named read-outs stand apart in the source and are kept apart here.

Experiments:
[1] = system: MV4-11 cells; assay: Growth inhibition, MTS assay, MV4-11; format: cell-based, Human; settings: MTS cell viability, read-out: MV4-11 ED50
Description: (§1) The following cell lines, were obtained and used in tests as outlined below: • Human myelomonocytic, biphenotypic leukemia MV4-11 cells (harboring a Flt3-ITD mutation); • Human Acute Myeloid Leukemia MOLM16 cells; • Human Acute Myeloid Leukemia MOLM13 cells (harboring a Flt3-ITD mutation); • Human Myeloid Leukemia KG-1 cells; • Human erythroleukemia HEL92 cells; • Human mantle cell lymphoma Jeko-1 cells; • Human hepatocellular carcinoma HepG2 cells; and • Human colon adenocarcinoma SW-480 cells.
(§2) The assays were carried out according to the following protocol, which is described as an example for the MV4-11 cells:
(§3) Ten thousand MV4-11 cells were inoculated into each well of a 96-well microplate (manufactured by Corning Corp.) using Iscove's MDM medium (culture medium) containing 10% fetal calf serum (FCS). The same day, a dimethyl sulfoxide (DMSO) solution of each test compound prepared in a concentration of 10 mmol/L was further diluted with DMSO to the desired concentrations (0.1, 0.5, 1, 2.5, 5 and 10 micromol/L), and the diluted solution was added to each well. The individual wells were further cultured in 5% carbon dioxide at 37° C. for 72 hours. […] Briefly, 10 μl MTS (3-(4,5-Dimethyl-2-thiazolyl)-5-(carboxymethoxyphenyl)-2-(4-sulfophenyl)-2H-tetrazolium was added to each well, and culturing was performed in 5% carbon dioxide at 37° C. for 2 hours. After this incubation and using a microplate spectrophotometer (Synergy 2 multi-mode microplate reader (BioTek)), the absorbance of each well was measured at 490 nm. The value for cells not incubated with a test compound was designated as 100%. By comparing these values with the absorbance difference obtained at the well in which each test compound was added, the cell viability (% viability) after treatment with the test compound was calculated.

[2] = target: DYRK1 (Homo sapiens (Human), UniProt Q13627); assay: ADP-Glo Kinase Assay, DYRK1; format: biochemical; settings: 1 μM compound; for inhibition at 1 µM: read-out: DYRK1A % INH (1 μM)
Experimental: (§4) Compounds of the present invention were tested for their inhibitory activity against Pim-1, Pim-2, Pim-3, Flt3 wt, Flt3 ITD, CDK2/E and DYRK1. The testing of the compounds was carried out using the ADP-Glo™ Kinase Assay from Promega Corporation (Madison, Wis., USA).
(§5) The ADP-Glo™ Kinase Assay is a luminescent ADP detection assay to measure kinase activity by quantifying the amount of ADP produced during a kinase reaction. The kinase assay is performed in kinase assay buffer (5 mM MOPS, pH 7.5, 5 mM MgCl2, 0.4 mM EDTA, 1.5 mM DTT). Test samples initially dissolved in DMSO at 10 mM were diluted with the assay buffer to 1000 nM. A 30 μL volume/well of a mixture of substrates containing ATP (final ATP concentration in each kinase assay was equal to its apparent ATP Km).
(§6) The assay was performed in two steps: first, after the kinase reaction, an equal volume of ADP-Glo™ Reagent was added to terminate the kinase reaction and deplete the remaining ATP. Second, the Kinase Detection Reagent was added to simultaneously convert ADP to ATP and allowed the newly synthesized ATP to be measured using a luciferase/luciferin reaction. The luminescent signal generated was proportional to the ADP concentration produced and was correlated with kinase activity. A microplate spectrophotometer (Synergy 2 multi-mode microplate reader [BioTek]) was used for detecting the luminescence. The data was normalized and the percent of inhibition was obtained according to the following equation: […]

[3] = system: HepG2 cells; assay: Growth inhibition, MTS assay, HepG2; format: cell-based, Human; settings: MTS cell viability, read-out: HepG2 ED50
Description: as §1, §2, §3

[4] = target: Pim-1 (Homo sapiens (Human), UniProt P11309); assay: ADP-Glo Kinase Assay, Pim-1; format: biochemical; settings: 1 μM compound; for inhibition at 1 µM: read-out: Pim-1 % INH (1 μM)
Chain of Pim-1 (P11309 whole entry): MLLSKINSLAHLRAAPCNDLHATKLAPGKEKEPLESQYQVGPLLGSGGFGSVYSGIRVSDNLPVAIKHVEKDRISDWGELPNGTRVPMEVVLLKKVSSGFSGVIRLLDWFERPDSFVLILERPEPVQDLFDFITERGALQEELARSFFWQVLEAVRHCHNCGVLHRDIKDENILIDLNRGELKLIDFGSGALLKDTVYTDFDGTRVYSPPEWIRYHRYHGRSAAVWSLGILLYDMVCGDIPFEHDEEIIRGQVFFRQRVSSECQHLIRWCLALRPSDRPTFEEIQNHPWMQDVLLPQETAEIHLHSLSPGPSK
Experimental: as §4, §5, §6

[5] = target: FLT3wt (Homo sapiens (Human), UniProt P36888); assay: ADP-Glo Kinase Assay, Flt3 wt; format: biochemical; settings: 1 μM compound; for inhibition at 1 µM: read-out: Flt3wt % INH (1 μM)
Chain of FLT3wt (P36888 27-993): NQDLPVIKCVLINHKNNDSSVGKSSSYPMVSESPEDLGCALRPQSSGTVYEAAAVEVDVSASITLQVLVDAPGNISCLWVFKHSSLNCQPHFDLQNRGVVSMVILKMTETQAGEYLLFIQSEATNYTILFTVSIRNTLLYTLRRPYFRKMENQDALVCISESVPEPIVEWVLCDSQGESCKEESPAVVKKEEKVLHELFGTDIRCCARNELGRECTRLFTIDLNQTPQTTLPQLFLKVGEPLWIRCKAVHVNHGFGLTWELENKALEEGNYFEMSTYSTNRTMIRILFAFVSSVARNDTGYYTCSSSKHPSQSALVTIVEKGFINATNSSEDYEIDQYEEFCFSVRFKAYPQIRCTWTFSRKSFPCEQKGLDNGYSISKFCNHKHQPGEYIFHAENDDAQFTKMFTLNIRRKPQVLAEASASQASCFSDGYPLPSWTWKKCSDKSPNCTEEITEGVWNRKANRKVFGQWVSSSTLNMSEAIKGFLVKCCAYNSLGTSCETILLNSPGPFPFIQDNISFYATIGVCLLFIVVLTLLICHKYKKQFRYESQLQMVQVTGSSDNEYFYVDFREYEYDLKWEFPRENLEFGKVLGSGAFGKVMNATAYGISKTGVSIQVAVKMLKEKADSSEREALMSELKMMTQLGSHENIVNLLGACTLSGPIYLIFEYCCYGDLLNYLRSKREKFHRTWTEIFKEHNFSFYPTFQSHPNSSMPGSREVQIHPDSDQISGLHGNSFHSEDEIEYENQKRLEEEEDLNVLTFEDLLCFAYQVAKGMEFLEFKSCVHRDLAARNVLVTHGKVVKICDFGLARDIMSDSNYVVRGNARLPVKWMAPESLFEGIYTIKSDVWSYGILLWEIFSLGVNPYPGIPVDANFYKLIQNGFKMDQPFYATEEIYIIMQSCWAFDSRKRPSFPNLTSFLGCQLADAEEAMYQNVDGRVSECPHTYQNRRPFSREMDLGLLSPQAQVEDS
Experimental: as §4, §5, §6

[6] = target: Pim-3 (Homo sapiens (Human), UniProt Q86V86); assay: ADP-Glo Kinase Assay, Pim-3; format: biochemical; settings: 1 μM compound; for inhibition at 1 µM: read-out: Pim-3 % INH (1 μM)
Experimental: as §4, §5, §6

[7] = target: Pim-2 (Homo sapiens (Human), UniProt Q9P1W9); assay: ADP-Glo Kinase Assay, Pim-2; format: biochemical; settings: 1 μM compound; for inhibition at 1 µM: read-out: Pim-2 % INH (1 μM)
Chain of Pim-2 (Q9P1W9 whole entry): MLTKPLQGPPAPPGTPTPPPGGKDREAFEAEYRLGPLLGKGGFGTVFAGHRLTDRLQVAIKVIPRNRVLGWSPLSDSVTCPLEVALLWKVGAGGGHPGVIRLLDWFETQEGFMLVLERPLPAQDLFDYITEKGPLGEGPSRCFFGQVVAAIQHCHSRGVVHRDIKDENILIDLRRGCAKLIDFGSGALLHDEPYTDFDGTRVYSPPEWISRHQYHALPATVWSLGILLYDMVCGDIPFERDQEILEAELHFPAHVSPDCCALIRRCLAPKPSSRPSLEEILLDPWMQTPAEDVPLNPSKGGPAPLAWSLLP
Experimental: as §4, §5, §6

[8] = target: CDK2/E (Homo sapiens (Human), UniProt P24941); assay: ADP-Glo Kinase Assay, CDK2/E; format: biochemical; settings: 1 μM compound; for inhibition at 1 µM: read-out: CDK2/E % INH (1 μM)
Experimental: as §4, §5, §6

[9] = system: HEL92 cells; assay: Growth inhibition, MTS assay, HEL92; format: cell-based, Human; settings: 72 hours, MTS cell viability; read-out: HEL92 ED50
Description: as §1, §2, §3

Row | SMILES | IC50 ([1]; 72 hours) [µM] | DYRK1A % INH (1 μM) [2] [%] | IC50 ([3]; 72 hours) [µM] | Pim-1 % INH (1 μM) [4] [%] | Flt3wt % INH (1 μM) [5] [%] | Pim-3 % INH (1 μM) [6] [%] | Pim-2 % INH (1 μM) [7] [%] | CDK2/E % INH (1 μM) [8] [%] | IC50 [9] [µM] | inhibition at 1 µM [4] [%] | inhibition at 1 µM [5] [%] | inhibition at 1 µM [6] [%] | inhibition at 1 µM [8] [%] | inhibition at 1 µM [2] [%] | inhibition at 1 µM [7] [%] | IC50 ([1]; Homo sapiens, MV4-11, 72 h) [µM] | IC50 ([3]; Homo sapiens, HepG2, 72 h) [µM]
1 | Cl.NC1CCCN(c2nc3c([N+](=O)[O-])c(Br)c(Br)cc3n2CC2CC2)C1 (centres unmarked) [Example 1AV] | 1.4 | 46 | 4.5 | >95 | 37 | 91 | 54 | 12 | – | – | – | – | – | – | – | – | –
2 | Cl.N[C@H]1CCN(c2nc3c([N+](=O)[O-])c(Br)c(Br)cc3n2CC2CC2)C1 [Example 1CK] | 2.0 | 23 | 5.3 | >95 | 30 | – | – | 24 | 6.9 | – | – | – | – | – | – | – | –
3 | CC(C)n1c(N2CCCC(CO)C2)nc2c([N+](=O)[O-])c(Br)c(Br)cc21 (centres unmarked) [Example 22H, {1-[5,6-dibromo-4-nitro-1-(propan-2-yl)-1H-1,3-benzodiazol-2-yl]piperidin-3-yl}methanol] | – | – | – | – | – | – | – | – | – | > 95 | < 5 | 71 | 16 | – | – | – | –
4 | CC(C)n1c(N2CCNC[C@H]2C)nc2c([N+](=O)[O-])c(Br)c(Br)cc21 [Example 1AO] | 0.6 | 15 | 1.7 | 95 | 26 | 59 | – | – | 3.8 | – | – | – | – | – | – | – | –
5 | CCn1c(NCC(O)CN)nc2c([N+](=O)[O-])c(Br)c(Br)cc21 (centres unmarked) [Example 1G] | – | – | – | – | – | – | – | – | – | 76 | 6 | 57 | < 5 | 12 | 34 | – | –
6 | COCCn1c(N2CC[C@@H](N)C2)nc2c([N+](=O)[O-])c(Br)c(Br)cc21 [Example 1CS] | 4.8 | 37 | 4.7 | >95 | 10 | 56 | 23 | 9 | – | – | – | – | – | – | – | – | –
7 | CCn1c(N2CCNCC2)nc2c(C(F)(F)F)c(Br)c(Br)cc21 [Example 9A, 5,6-dibromo-1-ethyl-2-(piperazin-1-yl)-4-(trifluoromethyl)-1H-1,3-benzodiazolehydrochloride] | – | – | – | – | – | – | – | – | – | > 95 | 76 | 66 | < 5 | 77 | 15 | 0.3 | 1.5
8 | CC(C)n1c(N[C@H]2CNC[C@@H]2O)nc2c([N+](=O)[O-])c(Br)c(Br)cc21.Cl [Example 1CE] | 2.8 | 37 | 3.2 | >95 | 12 | 76 | 53 | <5 | – | – | – | – | – | – | – | – | –
9 | CCn1c(N2CC[C@@H](N)C2)nc2c([N+](=O)[O-])c(Cl)c(Cl)cc21 [Example 1CO] | 4.3 | 30 | 3.9 | >95 | 12 | 69 | 25 | 27 | – | – | – | – | – | – | – | – | –
10 | COC(CN)CNc1nc2c(C#N)c(Br)c(Br)cc2n1C(C)C (centres unmarked) [Example 22AC, 2-[(3-amino-2-methoxypropyl)amino]-5,6-dibromo-1-(propan-2-yl)-1H-1,3-benzodiazole-4-carbonitrile] | – | – | – | – | – | – | – | – | – | > 95 | 7 | 61 | < 5 | 16 | 30 | 4.1 | 7.2
11 | CC(C)n1c(N2CCOCC2)nc2c([N+](=O)[O-])c(Br)c(Br)cc21 [Example 22K, 5,6-dibromo-2-(morpholin-4-yl)-4-nitro-1-(propan-2-yl)-1H-1,3-benzodiazole] | – | – | – | – | – | – | – | – | – | > 95 | 23 | 85 | < 5 | 28 | 40 | 4.1 | –
12 | CC(C)n1c(NC2CCC(N)CC2)nc2c([N+](=O)[O-])c(Br)c(Br)cc21 (centres unmarked) [Example 1CQ] | 1.7 | 28 | – | >95 | 17 | – | – | 50 | 6.0 | – | – | – | – | – | – | – | 2
13 | CC(C)n1c(NCC(O)CN)nc2c([N+](=O)[O-])c(Br)c(Br)cc21 (centres unmarked) [Example 1W] | – | – | – | – | – | – | – | – | – | 89 | < 5 | 92 | < 5 | 40 | – | – | –
14 | CC(C)n1c(N2CCC(N)CC2)nc2c([N+](=O)[O-])c(Br)c(Br)cc21 [Example 1CP] | 0.6 | 44 | 1.2 | >95 | 32 | – | – | 39 | 5.8 | – | – | – | – | – | – | – | –
15 | CCCn1c(N2CC[C@@H](N)C2)nc2c([N+](=O)[O-])c(Br)c(Br)cc21 [Example 1CM] | 0.8 | 95 | 2.6 | >95 | 26 | – | – | – | 5.2 | – | – | – | – | – | – | – | –
